Assay [1] addresses His6-ERα298-554 WT (ERα ligand-binding domain) (Homo sapiens (Human), UniProt P03372). Put plainly: Test A: biochemical antagonist activity, LanthaScreen TR-FRET ERα coactivator assay, WT. Conditions: protocol with 3 nM estradiol; read-out: Antagonism WT IC50. How it is done: (§1) Test A: Biochemical Antagonist Activity on Wild Type (WT) and Mutants
(§2) Estrogen Receptors Test A involves measuring the in vitro antagonist activity of the compounds of the invention on estrogen receptors.
(§3) The measurements of the antagonist activities were made using an estrogen receptor coactivator assay as described hereunder.
(§4) Antagonistic potency of compounds was evaluated using LanthaScreen® TR-FRET ERα Coactivator Assay (ThermoFisher) with modifications. […] The assay works in a homogeneous mix-and-read format. In a typical experiment, a 4 μL mixture of 0.5 nM His6-ERα298-554, 0.5 nM Tb-labeled His6 antibody, 250 nM PGC1a peptide, and 3 nM estradiol (or 10 nM estradiol) in 100 mM potassium phosphate, pH 7.4, 0.01% Tween-20, 0.02% NaN3, 5 mM DTT, was added to 40 nL test compound in DMSO and incubated overnight at room temperature. The TR-FRET 520:495 nm emission ratio was calculated and used to determine the IC50 value from a dose response curve fit to the 4-parameter logistic equation.

In another assay the target is ERα in MCF7 cells (Homo sapiens (Human), UniProt P03372). The assay can be described thus: Test C: estrogen receptor degradation activity, ERα in cell western assay in MCF7 cells. Conditions: for DC50: 4 hours post compound addition, ERα in cell western, read-out: Degradation IC50; for % Degradation at 3 μM: 4 hours, relative to fulvestrant. It counts as cell-based. On the procedure: Test C: Estrogen Receptor Degradation Activity
Test C involves measuring the in vitro degradation activity of the compounds of the invention.
The measurements of the degradation activities were made using abreast cancer cell ERα in cell western assay as described hereunder.
MCF7 cells (ATCC) were seeded in 384 wells microplate (collagen coated) at concentration of >9990 cells/30 μL per well in red phenol free MEM alpha medium (invitrogen) containing 5% charcoal dextran striped FBS. The following day, 9 points serial 1:5 dilution of each compound were added to the cells in 2.5 μL at final concentrations ranging from 3-0.000018 μM or 0.1 μM for fulvestrant (using as positive control). At 4 hours post compounds addition the cells were fixed by adding 25 μL of formalin (final concentration 5% formalin containing 0.1% triton) for 10 minutes at room temperature and then washed twice with PBS. Then, 50 μL of LI-COR blocking buffer containing 0.1% Triton was added to plate for 30 minutes at room temperature. LI-COR blocking buffer was removed and cells were incubated overnight at cold room with 50 μL anti-ER rabbit monoclonal antibody (Thermo scientific MA1-39540) diluted at 1:>999 in LI-COR blocking buffer containing 0.1% tween-20. Wells which were treated with blocking but no antibody were used as background control. Wells were washed twice with PBS (0.1% tween-20) and incubated at 37° C. for 60 minutes in LI-COR (0.1% tween-20) containing goat anti-rabbit antibody Alexa 488 (1:>999) and Syto-64 a DNA dye (2 μM final concentration). Cells were then washed 3 times in PBS and scanned in ACUMEN explorer (TTP-Labtech). Integrated intensities in the green fluorescence and red fluorescence were measured to determine the levels of ERα and DNA respectively.

The target of assay [2] is His6-ERα298-554 D538G mutant (ERα ligand-binding domain) (Homo sapiens (Human), UniProt P03372, D538G). Put plainly: Test A: biochemical antagonist activity, LanthaScreen TR-FRET ERα coactivator assay, D538G mutant. Particulars: protocol with 3 nM estradiol; read-out: Antagonism D538G IC50. On the procedure: as §1, §2, §3, §4
For orientation: Time-resolved FRET reads energy transfer from a long-lived donor to a nearby acceptor.

Assay [3] deals with His6-ERα298-554 Y537S mutant (ERα ligand-binding domain) (Homo sapiens (Human), UniProt P03372, Y537S). The assay can be described thus: Test A: biochemical antagonist activity, LanthaScreen TR-FRET ERα coactivator assay, Y537S mutant. Particulars: protocol with 3 nM estradiol; read-out: Antagonism Y537S IC50. How it is done: as §1, §2, §3, §4
Chain of His6-ERα298-554 Y537S mutant (ERα ligand-binding domain) (P03372 298-554 Y537S): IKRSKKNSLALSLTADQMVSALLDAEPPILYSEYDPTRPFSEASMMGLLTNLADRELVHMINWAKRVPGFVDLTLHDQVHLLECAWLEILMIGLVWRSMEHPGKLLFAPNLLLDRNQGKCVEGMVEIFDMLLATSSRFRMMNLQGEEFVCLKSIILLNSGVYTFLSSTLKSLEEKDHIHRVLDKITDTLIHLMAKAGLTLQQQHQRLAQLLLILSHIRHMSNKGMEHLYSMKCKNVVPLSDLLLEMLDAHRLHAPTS

Chain of ERα in MCF7 cells (P03372 whole entry): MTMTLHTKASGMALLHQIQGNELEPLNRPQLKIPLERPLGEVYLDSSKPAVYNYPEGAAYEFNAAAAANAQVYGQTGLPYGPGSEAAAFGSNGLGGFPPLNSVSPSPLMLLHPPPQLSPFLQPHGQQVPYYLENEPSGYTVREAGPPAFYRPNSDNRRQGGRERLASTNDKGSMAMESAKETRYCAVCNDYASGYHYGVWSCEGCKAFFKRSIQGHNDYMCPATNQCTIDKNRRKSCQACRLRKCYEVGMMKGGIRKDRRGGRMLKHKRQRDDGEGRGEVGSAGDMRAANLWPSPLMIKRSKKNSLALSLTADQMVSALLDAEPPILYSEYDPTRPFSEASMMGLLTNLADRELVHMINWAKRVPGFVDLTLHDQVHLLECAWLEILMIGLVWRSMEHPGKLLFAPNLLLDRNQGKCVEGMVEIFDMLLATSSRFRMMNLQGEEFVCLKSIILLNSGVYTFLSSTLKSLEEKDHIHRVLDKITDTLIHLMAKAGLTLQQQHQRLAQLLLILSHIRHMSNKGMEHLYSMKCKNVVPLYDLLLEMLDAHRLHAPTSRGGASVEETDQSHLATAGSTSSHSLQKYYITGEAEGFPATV
Chain of His6-ERα298-554 D538G mutant (ERα ligand-binding domain) (P03372 298-554 D538G): as the sequence (P03372 298-554 Y537S) above, with S240Y, D241G counted along it
Chain of His6-ERα298-554 WT (ERα ligand-binding domain) (P03372 298-554): as the sequence (P03372 298-554 Y537S) above, with S240Y counted along it

On to `Oc1ccc2c(c1)C(c1ccc(O[C@H]3CCN(CCCF)C3)cc1)=C(c1ccncc1F)CC2` [Example 1, 8-[4-[(3S)-1-(3-fluoropropyl)pyrrolidin-3-yl]oxyphenyl]-7-(3-fluoro-4-pyridyl)-5,6-dihydronaphthalen-2-ol], for which the IC50 (usually the concentration needed to halve the response being measured) in assay [1] came out at 0.46 µM. Moreover, on ERα in MCF7 cells, the DC50 turned out to be 0.034 µM and the “% Degradation at 3 μM” value is on record as 84%.

Turning to `Oc1ccc2c(c1)C(c1ccc(O[C@H]3CCN(CCCF)C3)cc1)=C(C1=CCOCC1)CC2` [Example 3, 7-(3,6-dihydro-2H-pyran-4-yl)-8-[4-[(3S)-1-(3-fluoropropyl)pyrrolidin-3-yl]oxyphenyl]-5,6-dihydronaphthalen-2-ol], the 50% inhibitory concentration (IC50) in assay [1] amounted to 1.51 µM. In addition, on ERα in MCF7 cells, the DC50 stood at 0.085 µM and the “% Degradation at 3 μM” value is on record as 80%.

Regarding `Oc1ccc2c(c1)C(c1ccc(O[C@H]3CCN(CCCF)C3)cc1)=C(c1ccc(F)cc1Cl)CC2` [Example 4, 7-(2-chloro-4-fluoro-phenyl)-8-[4-[(3S)-1-(3-fluoropropyl)pyrrolidin-3-yl]oxyphenyl]-5,6-dihydronaphthalen-2-ol], the IC50 in assay [1] was determined as 0.284 µM. Moreover, on ERα in MCF7 cells, the DC50 is 0.012 µM and the “% Degradation at 3 μM” value was 87%.

Turning to `Oc1ccc2c(c1)C(c1ccc(O[C@H]3CCN(CCCF)C3)cc1)=C(c1ccc3[nH]ccc3c1)CC2` [Example 5, 8-[4-[(3S)-1-(3-fluoropropyl)pyrrolidin-3-yl]oxyphenyl]-7-(1H-indol-5-yl)-5,6-dihydronaphthalen-2-ol], the values for the IC50 in assay [2], in assay [3] and in assay [1] were 0.209 µM, 0.072 µM and 0.028 µM, respectively. Moreover, the DC50 on ERα in MCF7 cells is 0.0005 µM. In addition, the “% Degradation at 3 μM” value on ERα in MCF7 cells is given as 81%.

Turning to `Oc1ccc(C2=C(c3ccc(O[C@H]4CCN(CCCF)C4)cc3)c3cc(O)ccc3CC2)c(F)c1` [Example 6, 7-(2-fluoro-4-hydroxy-phenyl)-8-[4-[(3S)-1-(3-fluoropropyl)pyrrolidin-3-yl]oxyphenyl]-5,6-dihydronaphthalen-2-ol], the values for the IC50 in assay [2], in assay [3] and in assay [1] were 0.013 µM, 0.008 µM and 0.002 µM, respectively. At ERα in MCF7 cells, the DC50 is 0.0002 µM. The “% Degradation at 3 μM” value at ERα in MCF7 cells is reported as 84%.

In the case of `Oc1ccc2c(c1)SCC(c1ccc3[nH]ccc3c1)=C2c1ccc(O[C@H]2CCN(CCCF)C2)cc1` [Example 19, 4-[4-[(3S)-1-(3-fluoropropyl)pyrrolidin-3-yl]oxyphenyl]-3-(1H-indol-5-yl)-2H-thiochromen-7-ol], the IC50 was 0.023 µM in assay [2], 0.011 µM in assay [3] and 0.007 µM in assay [1]. Moreover, on ERα in MCF7 cells, the DC50 came to 0.003 µM. Further, the “% Degradation at 3 μM” value at ERα in MCF7 cells is recorded as 78%.

As for `Oc1ccc2c(c1)SCC(c1ccc3c(c1)CCN3)=C2c1ccc(O[C@H]2CCN(CCCF)C2)cc1` [Example 20, 4-[4-[(3S)-1-(3-fluoropropyl)pyrrolidin-3-yl]oxyphenyl]-3-indolin-5-yl-2H-thiochromen-7-ol], the IC50 in assay [2] was 0.046 µM; in assay [3], 0.021 µM; in assay [1], 0.015 µM. On ERα in MCF7 cells, the DC50 amounted to 0.003 µM. For the same compound, on ERα in MCF7 cells, the “% Degradation at 3 μM” value worked out at 86%.

As to `Oc1ccc2c(c1)SCC(c1ccc(Cl)cc1Cl)=C2c1ccc(O[C@H]2CCN(CCCF)C2)cc1` [Example 21, 3-(2,4-dichlorophenyl)-4-[4-[(3S)-1-(3-fluoropropyl)pyrrolidin-3-yl]oxyphenyl]-2H-thiochromen-7-ol], the values for the IC50 in assay [2], in assay [3] and in assay [1] were 0.047 µM, 0.019 µM and 0.009 µM, respectively. Also, at ERα in MCF7 cells, the DC50 is 0.003 µM. The “% Degradation at 3 μM” value on ERα in MCF7 cells worked out at 92%.

Take `Oc1ccc2c(c1)SCC(c1ccc(F)cc1Cl)=C2c1ccc(O[C@H]2CCN(CCCF)C2)cc1` [Example 22, 3-(2-chloro-4-fluoro-phenyl)-4-[4-[(3S)-1-(3-fluoropropyl)pyrrolidin-3-yl]oxyphenyl]-2H-thiochromen-7-ol]: the results for the IC50 in assay [2], in assay [3] and in assay [1] were 0.027 µM, 0.009 µM and 0.006 µM, respectively. The DC50 on ERα in MCF7 cells amounted to 0.001 µM. Besides, the “% Degradation at 3 μM” value at ERα in MCF7 cells is given as 95%.

`Oc1cccc(C2=C(c3ccc(O[C@H]4CCN(CCCF)C4)cc3)c3ccc(O)cc3OCC2)c1` [Example 91, 5-[4-[(3S)-1-(3-fluoropropyl)pyrrolidin-3-yl]oxyphenyl]-4-(3-hydroxyphenyl)-2,3-dihydro-1-benzoxepin-8-ol]: the IC50 in assay [2] is 0.01 µM; in assay [3], 0.006 µM; in assay [1], 0.002 µM. Besides, the DC50 at ERα in MCF7 cells was 0.0004 µM. Also, the “% Degradation at 3 μM” value on ERα in MCF7 cells was 91%.

`Oc1ccc2c(c1)OCCC(c1ccc(F)cc1Cl)=C2c1ccc(O[C@H]2CCN(CCCF)C2)cc1` [Example 92, 4-(2-chloro-4-fluoro-phenyl)-5-[4-[(3S)-1-(3-fluoropropyl)pyrrolidin-3-yl]oxyphenyl]-2,3-dihydro-1-benzoxepin-8-ol]: the concentration for half-maximal inhibition (IC50) stood at 0.059 µM in assay [2], 0.022 µM in assay [3] and 0.007 µM in assay [1]. Further, the DC50 on ERα in MCF7 cells came out at 0.0005 µM. Besides, the “% Degradation at 3 μM” value at ERα in MCF7 cells is 96%.

For the compound `Oc1ccc2c(c1)OCCC(c1ccc3[nH]ccc3c1)=C2c1ccc(O[C@H]2CCN(CCCF)C2)cc1` [Example 93, 5-[4-[(3S)-1-(3-fluoropropyl)pyrrolidin-3-yl]oxyphenyl]-4-(1H-indol-5-yl)-2,3-dihydro-1-benzoxepin-8-ol], the results for the IC50 in assay [2], in assay [3] and in assay [1] were 0.059 µM, 0.026 µM and 0.008 µM, respectively. In addition, at ERα in MCF7 cells, the DC50 was 0.0004 µM. The “% Degradation at 3 μM” value on ERα in MCF7 cells came to 87%.

For the compound `Oc1ccc(C2=C(c3ccc(O[C@H]4CCN(CCCF)C4)cc3)c3ccc(O)cc3OCC2)c(F)c1` [Example 94, 4-(2-fluoro-4-hydroxy-phenyl)-5-[4-[(3S)-1-(3-fluoropropyl)pyrrolidin-3-yl]oxyphenyl]-2,3-dihydro-1-benzoxepin-8-ol], the IC50 in assay [2] was 0.01 µM; in assay [3], 0.006 µM; in assay [1], 0.002 µM. On ERα in MCF7 cells, the DC50 amounted to 0.0002 µM. Moreover, the “% Degradation at 3 μM” value at ERα in MCF7 cells is 87%.

Take `Oc1ccc2c(c1)OCCC(c1cccc(F)c1Cl)=C2c1ccc(O[C@H]2CCN(CCCF)C2)cc1` [Example 95, 4-(2-chloro-3-fluoro-phenyl)-5-[4-[(3S)-1-(3-fluoropropyl)pyrrolidin-3-yl]oxyphenyl]-2,3-dihydro-1-benzoxepin-8-ol]: the figures for the IC50 in assay [2], in assay [3] and in assay [1] were 0.043 µM, 0.02 µM and 0.006 µM, respectively. The DC50 at ERα in MCF7 cells was 0.0002 µM. Besides, the “% Degradation at 3 μM” value at ERα in MCF7 cells is recorded as 93%.

For `Oc1ccc2c(c1)OCCC(c1ccc(Cl)c(F)c1)=C2c1ccc(O[C@H]2CCN(CCCF)C2)cc1` [Example 97, 4-(4-chloro-3-fluoro-phenyl)-5-[4-[(3S)-1-(3-fluoropropyl)pyrrolidin-3-yl]oxyphenyl]-2,3-dihydro-1-benzoxepin-8-ol], the values for the IC50 in assay [2], in assay [3] and in assay [1] were 0.358 µM, 0.018 µM and 0.05 µM, respectively. In addition, at ERα in MCF7 cells, the DC50 is 0.0002 µM. At ERα in MCF7 cells, the “% Degradation at 3 μM” value worked out at 94%.

Turning to `Oc1ccc2c(c1)C(c1ccc(O[C@H]3CCN(CCCF)C3)cc1)=C(c1ccc(Cl)cc1Cl)CCS2` [Example 182, 4-(2,4-dichlorophenyl)-5-[4-[(3S)-1-(3-fluoropropyl)pyrrolidin-3-yl]oxyphenyl]-2,3-dihydro-1-benzothiepin-7-ol], at ERα in MCF7 cells, the DC50 worked out at 0.005 µM and the “% Degradation at 3 μM” value is recorded as 79%.

`O=S1(=O)CCC(c2ccc(Cl)cc2Cl)=C(c2ccc(O[C@H]3CCN(CCCF)C3)cc2)c2ccc(O)cc21` [Example 231, 4-(2,4-dichlorophenyl)-5-[4-[(3S)-1-(3-fluoropropyl)pyrrolidin-3-yl]oxyphenyl]-1,1-dioxo-2,3-dihydro-1λ^6-benzothiepin-8-ol]: at ERα in MCF7 cells, the DC50 is 0.002 µM and the “% Degradation at 3 μM” value is 96%.

Source of the values: US11149031B2, “Substituted N-(3-fluoropropyl)-pyrrolidine compounds, processes for their preparation and therapeutic uses thereof” (SANOFI, priority 2016, dated 2021).
